Active and inactive are the calls of the source. The calls are words filed in the database; no cut-off is given here.
Tests used:
SW-620 [1] = experiment: Cytotoxicity against human SW620 cells assessed as cell growth inhibition measured after 72 hrs by MTT assay; type: functional, cell-based; settings: SW-620, 72 h
SW480 [2] = experiment: Cytotoxicity against human SW480 cells assessed as cell growth inhibition measured after 72 hrs by MTT assay; type: functional, cell-based; settings: SW480, 72 h
K562 [3] = experiment: Induction of apoptosis in human K562 cells assessed as necrotic cells at IC50 incubated for 72 hrs by Annexin V-FITC/PI staining based flow cytometric analysis (reference value: 7.1 %); type: functional
HaCaT = experiment: Induction of apoptosis in human HaCaT cells at IC50 incubated for 72 hrs by Annexin V-FITC/PI staining based flow cytometric analysis; type: functional, cell-based
[4] = molecular target: 5-hydroxytryptamine receptor 2A (Rattus norvegicus) (UniProt P14842); experiment: Displacement of [3H]ketanserin from Sprague-Dawley rat 5-HT2A receptor measured after 60 mins by competitive binding assay
Rattus norvegicus = species on record: Rattus norvegicus; experiment: Displacement of [3H]-QNB from Sprague-Dawley rat Muscarinic acetylcholine receptor assessed as inhibition constant measured after 45 mins by competitive binding assay
[5] = Selectivity index, ratio of IC50 for cytotoxicity against human HMEC-1 cells to IC50 for cytotoxicity against human HCT-116 cells; type: toxicity, cell-based; settings: HMEC-1 cells and HCT-116 cells, read-out: Ratio IC50
HCT-116 [6] = experiment: Induction of apoptosis in human HCT-116 cells assessed as increase in caspase-3/7 activity at IC50 incubated for 24 hrs by Glo assay relative to control; type: functional
K562 [7] = experiment: Induction of apoptosis in human K562 cells assessed as viable cells at IC50 incubated for 72 hrs by Annexin V-FITC/PI staining based flow cytometric analysis (reference value: 89 %); type: functional
HCT-116 [8] = experiment: Antiproliferative activity against human HCT-116 cells assessed as decrease in IL-6 level at IC50 measured after 72 hrs by ELISA assay relative to control; type: functional; set-up: scale not given: the % may be the effect or the level left
HCT-116 [9] = experiment: Antiproliferative activity against human HCT-116 cells assessed as reduction in cell number at IC50 measured after 72 hrs by trypan blue dye based assay relative to control; type: functional; set-up: scale not given: the % may be the effect or the level left
K562 [10] = experiment: Antiproliferative activity against human K562 cells assessed as reduction in cell viability at IC50 measured after 72 hrs by trypan blue dye based assay relative to control; type: functional
[11] = Selectivity index, ratio of IC50 for cytotoxicity against human HMEC-1 cells to IC50 for cytotoxicity against human SW620 cells
SW480 [12] = experiment: Induction of apoptosis in human SW480 cells assessed as viable cells at IC50 incubated for 72 hrs by Annexin V-FITC/PI staining based flow cytometric analysis (reference value: 97.7 %); type: functional
SW480 [13] = experiment: Induction of apoptosis in human SW480 cells assessed as late apoptotic cells at IC50 incubated for 72 hrs by Annexin V-FITC/PI staining based flow cytometric analysis (reference value: 0.8 %); type: functional
PC-3 [14] = experiment: Induction of apoptosis in human PC-3 cells assessed as late apoptotic cells at IC50 incubated for 72 hrs by Annexin V-FITC/PI staining based flow cytometric analysis (reference value: 1.7 %); type: functional
PC-3 [15] = experiment: Antiproliferative activity against human PC-3 cells assessed as reduction in cell viability at IC50 measured after 72 hrs by trypan blue dye based assay relative to control; type: functional
PC-3 [16] = experiment: Antiproliferative activity against human PC-3 cells assessed as reduction in cell number at IC50 measured after 72 hrs by trypan blue dye based assay relative to control; type: functional; set-up: scale not given: the % may be the effect or the level left
SW480 [17] = experiment: Antiproliferative activity against human SW480 cells assessed as reduction in cell number at IC50 measured after 72 hrs by trypan blue dye based assay relative to control; type: functional; set-up: scale not given: the % may be the effect or the level left
HCT-116 [18] = experiment: Induction of apoptosis in human HCT-116 cells assessed as increase in caspase-3/7 activity at IC50 incubated for 24 hrs by Glo assay; type: functional, cell-based
SW480 [19] = experiment: Induction of apoptosis in human SW480 cells assessed as early apoptotic cells at IC50 incubated for 72 hrs by Annexin V-FITC/PI staining based flow cytometric analysis (reference value: […]); type: functional
SW480 [20] = experiment: Induction of apoptosis in human SW480 cells assessed as necrotic cells at IC50 incubated for 72 hrs by Annexin V-FITC/PI staining based flow cytometric analysis (reference value: 0.1 %); type: functional
SW480 [21] = experiment: Antiproliferative activity against human SW480 cells assessed as reduction in cell viability at IC50 measured after 72 hrs by trypan blue dye based assay relative to control; type: functional
PC-3 [22] = experiment: Induction of apoptosis in human PC-3 cells assessed as increase in caspase-3/7 activity at IC50 incubated for 24 hrs by Glo assay relative to control; type: functional
PC-3 [23] = experiment: Antiproliferative activity against human PC-3 cells assessed as decrease in IL-6 level at IC50 measured after 72 hrs by ELISA assay relative to control; type: functional; set-up: scale not given: the % may be the effect or the level left
PC-3 [24] = experiment: Induction of apoptosis in human PC-3 cells assessed as viable cells at IC50 incubated for 72 hrs by Annexin V-FITC/PI staining based flow cytometric analysis (reference value: 94.4 %); type: functional
PC-3 [25] = experiment: Induction of apoptosis in human PC-3 cells assessed as early apoptotic cells at IC50 incubated for 72 hrs by Annexin V-FITC/PI staining based flow cytometric analysis (reference value: 0.3 %); type: functional
[26] = molecular target: 5-hydroxytryptamine receptor 2A (Rattus norvegicus, UniProt P14842); experiment: Displacement of [3H]ketanserin from Sprague-Dawley rat 5-HT2A receptor assessed as inhibition constant measured after 60 mins by competitive binding assay
PC-3 [27] = experiment: Induction of apoptosis in human PC-3 cells assessed as necrotic cells at IC50 incubated for 72 hrs by Annexin V-FITC/PI staining based flow cytometric analysis (reference value: 3.6 %); type: functional
SW-620 [28] = experiment: Antiproliferative activity against human SW620 cells assessed as reduction in cell number at IC50 measured after 72 hrs by trypan blue dye based assay relative to control; type: functional; set-up: scale not given: the % may be the effect or the level left
SW-620 [29] = experiment: Induction of apoptosis in human SW620 cells assessed as necrotic cells at IC50 incubated for 72 hrs by Annexin V-FITC/PI staining based flow cytometric analysis (reference value: 0.7 %); type: functional
SW-620 [30] = experiment: Antiproliferative activity against human SW620 cells assessed as decrease in IL-6 level at IC50 measured after 72 hrs by ELISA assay relative to control; type: functional; set-up: scale not given: the % may be the effect or the level left
SW-620 [31] = experiment: Induction of apoptosis in human SW620 cells assessed as early apoptotic cells at IC50 incubated for 72 hrs by Annexin V-FITC/PI staining based flow cytometric analysis (reference value: 5.2 %); type: functional
SW-620 [32] = experiment: Antiproliferative activity against human SW620 cells assessed as reduction in cell viability at IC50 measured after 72 hrs by trypan blue dye based assay relative to control; type: functional
SW-620 [33] = experiment: Induction of apoptosis in human SW620 cells assessed as viable cells at IC50 incubated for 72 hrs by Annexin V-FITC/PI staining based flow cytometric analysis (reference value: 92.9 %); type: functional
SW-620 [34] = experiment: Induction of apoptosis in human SW620 cells assessed as late apoptotic cells at IC50 incubated for 72 hrs by Annexin V-FITC/PI staining based flow cytometric analysis (reference value: 1.2 %); type: functional
SW480 [35] = experiment: Antiproliferative activity against human SW480 cells assessed as decrease in IL-6 level at IC50 measured after 72 hrs by ELISA assay relative to control; type: functional; set-up: scale not given: the % may be the effect or the level left

5-hydroxytryptamine receptor 2A, sequence (P14842 whole entry): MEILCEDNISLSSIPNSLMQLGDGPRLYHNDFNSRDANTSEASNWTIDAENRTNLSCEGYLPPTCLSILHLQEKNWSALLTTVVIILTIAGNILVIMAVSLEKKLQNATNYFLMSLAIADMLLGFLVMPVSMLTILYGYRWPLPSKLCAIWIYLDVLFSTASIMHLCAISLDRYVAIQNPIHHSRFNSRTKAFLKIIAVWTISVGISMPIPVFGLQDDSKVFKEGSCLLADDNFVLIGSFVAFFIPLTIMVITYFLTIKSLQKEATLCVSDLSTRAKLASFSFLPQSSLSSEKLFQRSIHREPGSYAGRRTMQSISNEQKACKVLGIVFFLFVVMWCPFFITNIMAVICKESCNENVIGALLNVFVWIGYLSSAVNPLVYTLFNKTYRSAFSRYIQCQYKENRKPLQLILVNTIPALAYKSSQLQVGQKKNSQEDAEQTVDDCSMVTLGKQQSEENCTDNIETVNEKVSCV
5-hydroxytryptamine receptor 2A (Rattus norvegicus), sequence (P14842 whole entry): as above

SMILES	Activity (Rattus norvegicus)	Ki [26] [µM]	IC50 (SW-620 [1]) [µM]	IC50 (SW480 [2]) [µM]	Activity (K562 [3]) [%]	Activity (HaCaT)	selectivity ratio [5]	Activity (HCT-116 [6]) [%]	Activity (K562 [7]) [%]	Activity (HCT-116 [8]) [%]	Activity (HCT-116 [9]) [%]	Activity (K562 [10]) [%]	Ratio IC50 [11]	Activity (SW480 [12]) [%]	Activity (SW480 [13]) [%]	Activity (PC-3 [14]) [%]	Activity (SW480 [17]) [%]	Activity (SW480 [19]) [%]	Activity (SW480 [20]) [%]	Activity (SW480 [21]) [%]	further results
CC12C(=O)C(C)(C(c3ccccc3)=C1c1ccccc1)C1C(=O)N(CCCCN3CCN(c4ncccn4)CC3)C(=O)C12 (stereo unspecified)	inactive	–	13.5	15.8	7	inactive	6.6	137	77.3	53	49	28	2.26	–	–	–	–	–	–	–	Activity [4]: inactive
CC12C(=O)C(C)(C(c3ccccc3)=C1c1ccccc1)C1C(=O)N(CCCCN3CCN(c4cccc(Cl)c4)CC3)C(=O)C12 (stereo unspecified)	inactive	25.3	15.9	8.3	9.9	inactive	3.54	–	59.5	–	26	30	1.38	81.9	1.2	16.2	39	16.8	0.1	21	Activity (PC-3 [15]): 26%; Activity (PC-3 [16]): 29%; Activity (HCT-116 [18]): inactive; Activity (PC-3 [22]): 70%; Activity (PC-3 [23]): 51%; Activity (PC-3 [24]): 78.5%; Activity (PC-3 [25]): 3.3%; Activity (PC-3 [27]): 2.1%

The remaining molecules from weak to strong by Ki [26], led by results:

Activity (Rattus norvegicus)	Ki [26] [µM]	SMILES	IC50 (SW-620 [1]) [µM]	IC50 (SW480 [2]) [µM]	Activity (K562 [3]) [%]	Activity (HaCaT)	selectivity ratio [5]	Activity (HCT-116 [6]) [%]	Activity (K562 [7]) [%]	Activity (HCT-116 [8]) [%]	Activity (HCT-116 [9]) [%]	Activity (K562 [10]) [%]	Ratio IC50 [11]	Activity (SW480 [12]) [%]	Activity (SW480 [13]) [%]	Activity (PC-3 [14]) [%]	Activity (SW480 [17]) [%]	Activity (SW480 [19]) [%]	Activity (SW480 [20]) [%]	Activity (SW480 [21]) [%]	further results
inactive	4.7	CC12C(=O)C(C)(C(c3ccccc3)=C1c1ccccc1)C1C(=O)N(CCCCN3CCN(c4ccccn4)CC3)C(=O)C12 (stereo unspecified)	16	12.1	13.7	inactive	4.37	–	36.1	–	28	37	2.29	–	–	–	–	–	–	–	Activity (HCT-116 [18]): inactive
inactive	0.3	CC12C(=O)C(C)(C(c3ccccc3)=C1c1ccccc1)C1C(=O)N(CCCCN3CCN(c4ccccc4F)CC3)C(=O)C12 (stereo unspecified)	22.4	7.75	10.6	–	3.95	137	56.9	53	35	30	0.79	87.8	1.4	16.2	46	10.8	0.1	21	Activity (PC-3 [15]): 26%; Activity (PC-3 [16]): 27%; Activity (PC-3 [22]): 127%; Activity (PC-3 [24]): 75.6%; Activity (PC-3 [25]): 6.3%; Activity (PC-3 [27]): 2.1%
inactive	0.2	COc1ccccc1N1CCN(CCCCN2C(=O)C3C(C2=O)C2(C)C(=O)C3(C)C(c3ccccc3)=C2c2ccccc2)CC1 (stereo unspecified)	4.8	7.41	20.4	inactive	3.4	53	22.4	53	44	44	6.3	87.1	1.7	–	40	11.1	0.1	22	Activity (SW-620 [28]): 27%; Activity (SW-620 [29]): 1.4%; Activity (SW-620 [30]): 31%; Activity (SW-620 [31]): 7.6%; Activity (SW-620 [32]): 27%; Activity (SW-620 [33]): 89.2%; Activity (SW-620 [34]): 1.8%
inactive	0.1	CC12C(=O)C(C)(C(c3ccccc3)=C1c1ccccc1)C1C(=O)N(CCCCN3CCN(c4ccccc4Cl)CC3)C(=O)C12 (stereo unspecified)	6.2	5.29	8.4	inactive	5.77	137	67	53	29	30	3.33	89	1	32.6	38	10	0.1	21	Activity (SW-620 [28]): 27%; Activity (SW-620 [29]): 1.8%; Activity (SW-620 [30]): 24%; Activity (PC-3 [15]): 26%; Activity (PC-3 [16]): 43%; Activity (PC-3 [22]): 216%; Activity (PC-3 [24]): 60.1%; Activity (SW480 [35]): 48%; Activity (SW-620 [31]): 6.1%; Activity (SW-620 [32]): 23%; Activity (PC-3 [25]): 4.2%; Activity (SW-620 [33]): 89.9%; Activity (PC-3 [27]): 3.1%; Activity (SW-620 [34]): 2.2%
